Measured values taken from patent US20090239840A1, “AMINO SUBSTITUTED DIARYL[a,d]CYCLOHEPTENE ANALOGS AS [sequence] AGONISTS AND METHODS OF TREATMENT OF NEUROPSYCHIATRIC DISORDERS” (ACADIA PHARMACEUTICALS, INC., priority 2003, published 2009).
Like-named read-outs stand apart in the source and are kept apart here.

Legend:
muscarinic M1 receptor = molecular target: T1, muscarinic M1 receptor (Homo sapiens, UniProt P11229); assay: R-SAT functional screen, M1; assay type: cell-based; conditions: for Emax: read-out: M1 eff (efficacy)
T1 construct: expressed in transfected cells
T1 sequence (P11229 1-460): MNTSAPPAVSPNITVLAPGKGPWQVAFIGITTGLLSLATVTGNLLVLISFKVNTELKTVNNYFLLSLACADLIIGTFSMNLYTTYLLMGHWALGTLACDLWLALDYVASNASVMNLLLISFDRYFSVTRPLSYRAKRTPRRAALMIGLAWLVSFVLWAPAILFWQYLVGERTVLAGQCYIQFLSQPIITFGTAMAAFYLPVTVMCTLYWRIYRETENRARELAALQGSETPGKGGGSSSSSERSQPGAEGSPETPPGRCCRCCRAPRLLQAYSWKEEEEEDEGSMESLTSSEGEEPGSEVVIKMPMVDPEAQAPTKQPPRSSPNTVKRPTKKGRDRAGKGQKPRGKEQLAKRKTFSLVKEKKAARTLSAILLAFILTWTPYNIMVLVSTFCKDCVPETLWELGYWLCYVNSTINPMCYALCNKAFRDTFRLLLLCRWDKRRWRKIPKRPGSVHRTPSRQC
Protocol: (§1) Several compounds disclosed herein were evaluated for activity at muscarinic receptors using Receptor Selection and Amplification Technology (R-SAT) as described in U.S. Pat. No. 5,707,798, the disclosure of which is incorporated herein by reference in its entirety. The efficacy (eff) and potency (expressed as pEC50) of these compounds are presented in Table 1 at M1, M2, and M3 receptors.

muscarinic M2 receptor = molecular target: T2, muscarinic M2 receptor (Homo sapiens, UniProt P08172); assay: R-SAT functional screen, M2; assay type: cell-based; conditions: for Emax: read-out: M2 eff (efficacy)
T2 construct: expressed in transfected cells
T2 sequence (P08172 1-466): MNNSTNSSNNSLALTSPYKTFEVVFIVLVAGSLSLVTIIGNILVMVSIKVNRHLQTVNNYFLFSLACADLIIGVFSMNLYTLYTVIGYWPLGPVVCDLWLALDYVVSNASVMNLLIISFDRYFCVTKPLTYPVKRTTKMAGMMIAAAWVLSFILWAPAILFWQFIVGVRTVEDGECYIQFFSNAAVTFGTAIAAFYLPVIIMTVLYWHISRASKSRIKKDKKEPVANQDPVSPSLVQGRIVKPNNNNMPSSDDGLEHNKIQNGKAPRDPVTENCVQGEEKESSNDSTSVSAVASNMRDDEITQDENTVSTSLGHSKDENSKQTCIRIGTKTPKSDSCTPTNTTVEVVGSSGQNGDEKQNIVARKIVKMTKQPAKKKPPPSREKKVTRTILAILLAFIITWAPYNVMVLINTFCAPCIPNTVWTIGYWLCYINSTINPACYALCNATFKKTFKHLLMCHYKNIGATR
Protocol: as §1

[1] = R-SAT, read-out: M1 pEC50 (converted)
[2] = R-SAT, read-out: M2 pEC50 (converted)

SMILES	Emax (muscarinic M2 receptor; R-SAT)	EC50 (muscarinic M2 receptor; [2])	also measured
Ic1ccc2c(c1)N=C(N1CCNCC1)c1ccccc1N2 [8-Iodo-11-(piperazin-1-yl)-5H-dibenzo[b,e][1,4]diazepine]	187%	1000 nM	Emax (muscarinic M1 receptor; R-SAT): 75%; EC50 (muscarinic M1 receptor; [1]): 63.1 nM
COc1ccc2c(c1)Oc1ccccc1N=C2N1CCNCC1 [3-Methoxy-11-(piperazin-1-yl)-dibenzo[b,f][1,4]oxazepine]	45%	2510 nM	–
Clc1ccc2c(c1)N=C(C1CCNCC1)c1ccccc1N2Cc1ccccc1 [5-Benzyl-8-chloro-11-(piperidin-4-yl)-5H-dibenzo[b,e][1,4]diazepine]	5%	–	Emax (muscarinic M1 receptor; R-SAT): 12%
Clc1ccc2c(c1)Nc1ccccc1N=C2N1CCNCC1 [3-Chloro-11-(piperazin-1-yl)-5H-dibenzo[b,e][1,4]diazepine]	27%	2000 nM	Emax (muscarinic M1 receptor; R-SAT): 16%
CN1CCCN(C2=Nc3cc(Cl)ccc3Nc3ccccc32)CC1 [8-Chloro-11-(4-methyl-[1,4]diazepam-1-yl)-5H-dibenzo[b,e][1,4]diazepine]	–	–	Emax (muscarinic M1 receptor): 18%; EC50 (muscarinic M2 receptor): 1260 nM; Emax (muscarinic M2 receptor): 50%
Clc1ccc2c(c1)N=C(N1CC3CC1CN3)c1ccccc1N2 (stereo not drawn) [8-Chloro-11-(2,5-diaza-bicyclo[2.2.1]hept-2-yl)-5H-dibenzo[b,e][1,4]diazepine]	49%	2510 nM	Emax (muscarinic M1 receptor; R-SAT): 34%; EC50 (muscarinic M1 receptor; [1]): 251 nM
Clc1ccc2c(c1)N=C(N1CCNCC1)c1cc(Br)ccc1N2 [2-Bromo-8-chloro-11-(piperazin-1-yl)-5H-dibenzo[b,e][1,4]diazepine]	19%	–	Emax (muscarinic M1 receptor; R-SAT): 6%
CN1CCN(C2=Nc3cc(Cl)ccc3Oc3ccccc32)CC1 [8-Chloro-11-(4-methyl-piperazin-1-yl)-dibenzo[b,f][1,4]oxazepine]	46%	1580 nM	Emax (muscarinic M1 receptor; R-SAT): 13%
Fc1ccc2c(c1)N=C(N1CCCNCC1)c1ccccc1N2 [8-Fluoro-11-[1,4]diazepam-1-yl-5H-dibenzo[b,e][1,4]diazepine]	–	–	EC50 (muscarinic M1 receptor): 200 nM; Emax (muscarinic M1 receptor): 25%; EC50 (muscarinic M2 receptor): 251 nM; Emax (muscarinic M2 receptor): 67%
COc1ccc2c(c1)Oc1ccc(C(F)(F)F)cc1N=C2N1CCNCC1 [3-Methoxy-11-(piperazin-1-yl)-8-trifluoromethyl-dibenzo[b,f][1,4]oxazepine]	17%	–	–
O=S(=O)(Oc1ccc2c(c1)C(N1CCNCC1)=Nc1cc(Cl)ccc1N2)C(F)(F)F [8-Chloro-2-(trifluoromethanesulfonyloxy)-11-(piperazin-1-yl)-5H-dibenzo[b,e][1,4]diazepine]	16%	–	Emax (muscarinic M1 receptor; R-SAT): -2%
Clc1ccc2c(c1)C(N1CCNCC1)=Nc1ccccc1N2 [2-Chloro-11-(piperazin-1-yl)-5H-dibenzo[b,e][1,4]diazepine]	8%	–	Emax (muscarinic M1 receptor; R-SAT): -5%
COc1ccc2c(c1)Oc1ccc(C)cc1N=C2N1CCNCC1 [3-Methoxy-8-methyl-11-(piperazin-1-yl)-dibenzo[b,f][1,4]oxazepine]	45%	3160 nM	–
Fc1ccc2c(c1)N=C(N1CCNCC1)c1ccccc1C2 [3-Fluoro-6-piperazin-1-yl-11H-dibenzo[b,e]azepine]	55%	794 nM	Emax (muscarinic M1 receptor; R-SAT): 23%
Clc1ccc2c(c1)Oc1ccccc1C(N1CCNCC1)=N2 [7-Chloro-11-(piperazin-1-yl)-dibenzo[b,f][1,4]oxazepine]	53%	1260 nM	–
Cc1cccc2c1Oc1cc(Cl)ccc1N=C2N1CCNCC1 [7-Chloro-4-methyl-11-(piperazin-1-yl)-dibenzo[b,f][1,4]oxazepine]	28%	398 nM	–
Cc1ccc2c(c1)C(N1CCNCC1)=Nc1ccccc1N2 [2-Methyl-11-(piperazin-1-yl)-5H-dibenzo[b,e][1,4]diazepine]	9%	–	Emax (muscarinic M1 receptor; R-SAT): 1%
Fc1ccc(C2=Nc3cc(Cl)ccc3Nc3ccccc32)cc1 [8-Chloro-11-(4-fluorophenyl)-5H-dibenzo[b,e][1,4]diazepine]	4%	–	Emax (muscarinic M1 receptor; R-SAT): 13%
FC(F)(F)c1ccc2c(c1)N=C(N1CCNCC1)c1cc(Br)ccc1O2 [2-Bromo-11-(piperazin-1-yl)-8-trifluoromethyl-dibenzo[b,f][1,4]oxazepine]	11%	–	–
c1ccc(-c2ccc3c(c2)N=C(N2CCNCC2)c2ccccc2O3)cc1 [8-Phenyl-11-(piperazin-1-yl)-dibenzo[b,f][1,4]oxazepine]	33%	1260 nM	–
Cc1cccc2c1Oc1ccccc1N=C2N1CCNCC1 [4-Methyl-11-(piperazin-1-yl)-dibenzo[b,f][1,4]oxazepine]	22%	–	–

SMILES	Emax (muscarinic M2 receptor; R-SAT)	EC50 (muscarinic M2 receptor; [2])	also measured
c1ccc2c(c1)N=C(N1CCNCC1)c1ccccc1O2 [11-(piperazin-1-yl)-dibenzo[b,f][1,4]oxazepine]	58%	2000 nM	–
Brc1ccc2c(c1)C(N1CCNCC1)=Nc1ccccc1O2 [2-Bromo-11-(piperazin-1-yl)-dibenzo[bf][1,4]oxazepine]	9%	–	–
Cc1ccc2c(c1)N=C(N1CCNCC1)c1ccccc1O2 [8-Methyl-11-(piperazin-1-yl)-dibenzo[b,f][1,4]oxazepine]	76%	3160 nM	–
Cc1cccc2c1Oc1ccc(Br)cc1N=C2N1CCNCC1 [8-Bromo-4-methyl-11-(piperazin-1-yl)-dibenzo[b,f][1,4]oxazepine]	48%	1580 nM	–
COc1ccc2c(c1)Oc1ccc(Br)cc1N=C2N1CCNCC1 [8-Bromo-3-methoxy-11-(piperazin-1-yl)-dibenzo[b,f][1,4]oxazepine]	21%	–	–
Clc1ccc2c(c1)N=C(NC1CNC1)c1ccccc1N2 [Acetidin-3-yl-(8-chloro-5H-dibenzo[b,e][1,4]diazepine-11-yl)amine]	17%	–	–
Brc1ccc2c(c1)N=C(N1CCNCC1)c1cc(Br)ccc1O2 [2,8-Dibromo-11-(piperazin-1-yl)-dibenzo[b,f][1,4]oxazepine]	6%	–	–
Clc1cccc2c1Nc1ccccc1C(N1CCNCC1)=N2 [6-Chloro-11-(piperazin-1-yl)-5H-dibenzo[b,e][1,4]diazepine]	71%	–	–
Clc1ccc2c(c1)N=C(N1CCNCC1)c1c(Cl)cccc1N2 [1,8-Dichloro-11-(piperazin-1-yl)-5H-dibenzo[b,e][1,4]diazepine]	84%	2000 nM	–
Fc1ccc2c(c1)N=C(N1CCNCC1)c1cc(Br)ccc1O2 [2-Bromo-8-fluoro-11-(piperazin-1-yl)-dibenzo[b,f][1,4]oxazepine]	21%	–	–
Cc1ccc2c(c1)N=C(N1CCNCC1)c1cccc(C)c1O2 [4,8-Dimethyl-11-(piperazin-1-yl)-dibenzo[b,f][1,4]oxazepine]	46%	794 nM	–
COc1ccc2c(c1)Oc1ccc(F)cc1N=C2N1CCNCC1 [8-Fluoro-3-methoxy-11-(piperazin-1-yl)-dibenzo[b,f][1,4]oxazepine]	49%	2510 nM	–
Clc1ccc2c(c1)N=C(N1CCNCC1)c1cc(Br)ccc1O2 [2-Bromo-8-chloro-11-(piperazin-1-yl)-dibenzo[b,f][1,4]oxazepine]	13%	–	–
c1ccc(-c2ccc3c(c2)N=C(N2CCNCC2)c2ccccc2N3)cc1 [8-Phenyl-11-(piperazin-1-yl)-5H-dibenzo[b,e][1,4]diazepine]	104%	2000 nM	–
COc1ccc2c(c1)Oc1cc(Cl)ccc1N=C2N1CCNCC1 [7-Chloro-3-methoxy-11-(piperazin-1-yl)-dibenzo[b,f][1,4]oxazepine]	44%	1000 nM	–
Clc1ccc2c(c1)Oc1ccc(Br)cc1C(N1CCNCC1)=N2 [2-Bromo-7-chloro-11-(piperazin-1-yl)-dibenzo[b,f][1,4]oxazepine]	15%	–	–
COc1ccc2c(c1)Oc1ccc(Cl)cc1N=C2N1CCNCC1 [8-Chloro-3-methoxy-11-(piperazin-1-yl)-dibenzo[b,f][1,4]oxazepine]	19%	–	–
FC(F)(F)c1ccc2c(c1)N=C(N1CCNCC1)c1ccc(Cl)cc1N2 [3-Chloro-11-(piperazin-1-yl)-8-trifluoromethyl-5H-dibenzo[b,e][1,4]diazepine]	–	–	Emax (muscarinic M1 receptor; R-SAT): 11%
FC(F)(F)c1ccc2c(c1)N=C(N1CCNCC1)c1ccccc1O2 [11-(piperazin-1-yl)-8-trifluoromethyl-dibenzo[b,f][1,4]oxazepine]	58%	1260 nM	–
Cc1ccc2c(c1)N=C(N1CCNCC1)c1cc(Br)ccc1O2 [2-Bromo-8-methyl-11-(piperazin-1-yl)-dibenzo[b,f][1,4]oxazepine]	17%	–	–
